Results taken from publication PMC7687371, “Quantitative in Vitro to in Vivo Extrapolation (QIVIVE) for Predicting Reduced Anogenital Distance Produced by Anti-Androgenic Pesticides in a Rodent Model for Male Reproductive Disorders” (Environmental Health Perspectives, 2020).
Read-outs that look alike come from different tables or passages of the source.

Tests used:
Sprague-Dawley rats = details: male, rat, in vivo
NCI-H295R cells = assay: Cell viability (MTT) in the H295R assay; format: cell-based, human; details: human, 48 h
Procedure: To capture effects on steroid hormone synthesis (testosterone and androstendione), we tested all 12 pesticides in the H295R assay with the human adrenocortical carcinoma cell line NCI-H295R (American Type Culture Collection no. CRL-2,128, LGC Standards), as previously described ([Hecker et al. 2011]; [Rosenmai et al. 2013]). In brief, cells were cultured in DMEM/F-12 +glutamine medium with HEPES buffer (Invitrogen) containing 1% insulin-transferrin-sodium selenite plus Premix (VWR) and 2.5% Nu-Serum (BD Bioscience) at 37°C in a 5% CO2 atmosphere. The day before exposure, cells were seeded 300,000 per well in clear 24-well plates (VWR Corning). Cells were exposed for 48 h to control (Forskolin: 1μM , 10μM (Sigma-Aldrich); and Prochloraz: 0.3μM , 3μM (VWR-Bie and Berntsen) or test compounds. The vehicle (DMSO) concentration was kept constant in all wells (0.1%). After 48 h, the exposure culture medium was removed and stored at –80°C until the levels of 10 steroid hormones (testosterone, androstenedione, aldosterone, corticosterone, cortisol, dehydroepiandrosterone, 17α-hydroxyprogesterone , progesterone, estrone, and 17β-estradiol ) were quantified using the high-performance liquid chromatography–tandem mass spectrometry method described elsewhere ([Mortensen and Pedersen 2007]). Minor modifications were made to accommodate a smaller sample size and to include more hormones. […]

Wistar rats = details: rat, in vivo; cited from earlier work
androgen receptor (AR) = target: T1, androgen receptor (AR) (Homo sapiens, UniProt P10275); assay: AR-EcoScreen androgen receptor transcriptional activation assay (AR antagonism); format: cell-based
T1 construct: host or cells: AR-EcoScreen cells
T1 sequence (P10275 1-920): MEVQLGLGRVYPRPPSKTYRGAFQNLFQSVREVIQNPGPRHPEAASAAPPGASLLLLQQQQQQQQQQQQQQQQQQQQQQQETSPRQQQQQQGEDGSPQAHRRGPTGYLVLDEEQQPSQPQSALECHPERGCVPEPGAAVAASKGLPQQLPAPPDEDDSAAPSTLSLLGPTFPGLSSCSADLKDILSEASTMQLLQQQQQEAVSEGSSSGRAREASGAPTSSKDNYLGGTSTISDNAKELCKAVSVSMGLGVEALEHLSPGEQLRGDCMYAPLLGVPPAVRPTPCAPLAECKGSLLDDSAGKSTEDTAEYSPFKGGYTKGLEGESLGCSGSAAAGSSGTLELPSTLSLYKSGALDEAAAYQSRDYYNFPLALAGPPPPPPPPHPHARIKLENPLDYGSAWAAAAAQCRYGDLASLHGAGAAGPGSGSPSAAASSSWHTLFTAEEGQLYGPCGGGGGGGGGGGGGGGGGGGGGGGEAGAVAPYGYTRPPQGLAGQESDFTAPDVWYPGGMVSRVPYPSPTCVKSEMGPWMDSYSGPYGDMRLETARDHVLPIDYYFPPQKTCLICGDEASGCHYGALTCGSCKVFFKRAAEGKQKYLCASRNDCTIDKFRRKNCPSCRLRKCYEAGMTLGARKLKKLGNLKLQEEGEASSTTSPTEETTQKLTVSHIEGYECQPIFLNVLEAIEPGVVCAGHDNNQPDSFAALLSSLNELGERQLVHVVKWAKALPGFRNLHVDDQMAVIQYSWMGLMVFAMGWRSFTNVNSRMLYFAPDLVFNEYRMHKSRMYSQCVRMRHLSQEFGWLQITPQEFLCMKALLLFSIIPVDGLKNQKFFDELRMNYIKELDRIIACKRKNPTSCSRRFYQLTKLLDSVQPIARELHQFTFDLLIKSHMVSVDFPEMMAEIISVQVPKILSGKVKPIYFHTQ
Procedure: Experiments were run with three technical replicates and repeated three times. The mean value of technical replicates represents one biological replicate. AR-EcoScreen™ cells (JCRB1328; Japanese Collection of Research Bioresources) were grown in CellBIND® surface cell culture flasks (Corning Inc.) in growth medium consisting of Gibco® Dulbecco’s Modified Eagle’s Medium/F-12 (DMEM/F-12) Nutrient Mixture with L-glutamine and 4-(2-hydroxyethyl)-1-piperazineethanesulfonic acid (HEPES) and without phenol red supplemented with 5% fetal bovine serum (FBS), 1% penicillin-streptomycin, 200μg/mL Zeocin™ selection reagent, and 100μg/mL Hygromycin B (all reagents from Invitrogen, Life Technologies). The cells were incubated at 37°C in a humidified atmosphere of 5% carbon dioxide ( CO2 ) and 95% air. On the day before the experiment, cells were plated in white 96-well plates (Corning Inc.) at a density of 9,000 cells/well in assay medium consisting of Gibco® DMEM/F-12 Nutrient Mixture medium, 1% penicillin-streptomycin, with 5% dextran-coated charcoal-treated FBS (all reagents from Invitrogen, Life Technologies). On the following day, the medium was changed to assay medium containing the known AR agonist R1881 (Perkin Elmer) in 2-fold serial dilutions from 0.008 to 1 nM or the known AR antagonist hydroxyflutamide (CASRN 52806-53-8, Toronto Research Chemicals) in 3-fold serial dilutions from […] together with 0.1 nM R1881. […] The DMSO vehicle concentrations were kept constant in all wells (0.1%). Following approximately 20 h of exposure to test compounds firefly luminescence was measured in a luminometer (LUMIstar® Galaxy, BMG LABTECH) using Dual-Glo® Luciferase Reagent from the Dual-Glo® Luciferase Assay System from Promega. Cell viability was measured by Renilla luminescence using Dual-Glo® Stop & Glo® Reagent from the Dual-Glo® Luciferase Assay System.

COc1ccc(C(=CC(=O)N2CCOCC2)c2ccc(Cl)cc2)cc1OC [Dimethomorph, dimethomorph]
AGDI mean (Sprague-Dawley rats; 20 mg/kg): 1.95
AGDI mean (Sprague-Dawley rats; 60 mg/kg): 1.88
AGDI mean (Sprague-Dawley rats; 180 mg/kg): 1.91

N#Cc1c[nH]cc1-c1cccc2c1OC(F)(F)O2 [Fludioxonil, fludioxonil]
Cytotoxicity in H295R assay, concentrations (NCI-H295R cells): > 12.5 µM

CC12CC1(C)C(=O)N(c1cc(Cl)cc(Cl)c1)C2=O (stereo not shown) [Procymidone, procymidone, reference compound]
AGDI ED50 (Wistar rats): 69.4 mg/kg BW
IC50 (androgen receptor (AR)): 400 nM
AR antagonism, in words (androgen receptor (AR); reporter gene assay): antagonized the AR
